Experimental data: the supplement of paper PMC10307832

Columns and labels:
Test in all cases: relative viability (nuclei count vs DMSO), 5 days (fraction); higher = more cells survive
COR-L 105 = system: COR-L 105
In short: (§1)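 Medians of duplicate plates are given as relative viability. That measure is the nuclei count in treated wells divided by the count in vehicle wells. Counts were taken on 4× images of lung cancer cell lines in 1536-well plates, 5 days after pin-tool dosing the day after seeding with one drug alone or a fixed anchor-drug dose plus five library-drug doses (not always all listed) in √10 steps.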

COR-L23 = system: COR-L23
In short: as §1

HARA = system: HARA
In short: as §1

HCC-15 = system: HCC-15
In short: as §1

HOP-62 = system: HOP-62
In short: as §1

NCI-H1355 = system: NCI-H1355
In short: as §1

NCI-H1395 = system: NCI-H1395
In short: as §1

NCI-H1734 = system: NCI-H1734
In short: as §1

NCI-H1755 = system: NCI-H1755
In short: as §1

NCI-H1792 = system: NCI-H1792
In short: as §1

NCI-H1793 = system: NCI-H1793
In short: as §1

NCI-H1993 = system: NCI-H1993
In short: as §1

NCI-H2009 = system: NCI-H2009
In short: as §1

NCI-H2170 = system: NCI-H2170
In short: as §1

NCI-H2347 = system: NCI-H2347
In short: as §1

NCI-H358 = system: NCI-H358
In short: as §1

NCI-H522 = system: NCI-H522
In short: as §1

NCI-H647 = system: NCI-H647
In short: as §1

NCI-H838 = system: NCI-H838
In short: as §1

SK-MES-1 = system: SK-MES-1
In short: as §1

UMC-11 = system: UMC-11
In short: as §1

Which results are given for `CCN(CC)CCCCNc1ncc2cc(-c3cc(OC)cc(OC)c3)c(NC(=O)NC(C)(C)C)nc2n1` + Nc1ncn([C@H]2C[C@H](O)[C@@H](CO)O2)c(=O)n1 [Decitabine] (partner 2 µM)?
relative viability (COR-L 105; first compound 0.01 µM): 0.591; relative viability (COR-L 105; first compound 0.03162 µM): 0.777; relative viability (COR-L 105; first compound 0.1 µM): 0.692; relative viability (COR-L 105; first compound 0.3162 µM): 0.786; relative viability (COR-L 105; first compound 1 µM): 0.669; relative viability (COR-L23; first compound 0.01 µM): 0.4; relative viability (COR-L23; first compound 0.03162 µM): 0.445; relative viability (COR-L23; first compound 0.1 µM): 0.461; relative viability (COR-L23; first compound 0.3162 µM): 0.442; relative viability (COR-L23; first compound 1 µM): 0.43; relative viability (HARA; first compound 0.01 µM): 0.625; relative viability (HARA; first compound 0.03162 µM): 0.557; relative viability (HARA; first compound 0.1 µM): 0.636; relative viability (HARA; first compound 0.3162 µM): 0.649; relative viability (HARA; first compound 1 µM): 0.317; relative viability (HCC-15; first compound 0.01 µM): 0.691; relative viability (HCC-15; first compound 0.03162 µM): 0.635; relative viability (HCC-15; first compound 0.1 µM): 0.655; relative viability (HCC-15; first compound 0.3162 µM): 0.68; relative viability (HCC-15; first compound 1 µM): 0.51; relative viability (HOP-62; first compound 0.01 µM): 0.243; relative viability (HOP-62; first compound 0.03162 µM): 0.207; relative viability (HOP-62; first compound 0.1 µM): 0.208; relative viability (HOP-62; first compound 0.3162 µM): 0.207; relative viability (HOP-62; first compound 1 µM): 0.268; relative viability (NCI-H1355; first compound 0.01 µM): 0.364; relative viability (NCI-H1355; first compound 0.03162 µM): 0.368; relative viability (NCI-H1355; first compound 0.1 µM): 0.36; relative viability (NCI-H1355; first compound 0.3162 µM): 0.396; relative viability (NCI-H1355; first compound 1 µM): 0.339; relative viability (NCI-H1395; first compound 0.01 µM): 0.8; relative viability (NCI-H1395; first compound 0.03162 µM): 0.685; relative viability (NCI-H1395; first compound 0.1 µM): 0.743; relative viability (NCI-H1395; first compound 0.3162 µM): 0.735; relative viability (NCI-H1395; first compound 1 µM): 0.598; relative viability (NCI-H1734; first compound 0.01 µM): 0.485; relative viability (NCI-H1734; first compound 0.03162 µM): 0.372; relative viability (NCI-H1734; first compound 0.1 µM): 0.534; relative viability (NCI-H1734; first compound 0.3162 µM): 0.473; relative viability (NCI-H1734; first compound 1 µM): 0.475; relative viability (NCI-H1755; first compound 0.01 µM): 0.72; relative viability (NCI-H1755; first compound 0.03162 µM): 0.715; relative viability (NCI-H1755; first compound 0.1 µM): 0.712; relative viability (NCI-H1755; first compound 0.3162 µM): 0.756; relative viability (NCI-H1755; first compound 1 µM): 0.685; relative viability (NCI-H1792; first compound 0.01 µM): 0.522; relative viability (NCI-H1792; first compound 0.03162 µM): 0.552; relative viability (NCI-H1792; first compound 0.1 µM): 0.536; relative viability (NCI-H1792; first compound 0.3162 µM): 0.489; relative viability (NCI-H1792; first compound 1 µM): 0.479; relative viability (NCI-H1793; first compound 0.01 µM): 0.496; relative viability (NCI-H1793; first compound 0.03162 µM): 0.464; relative viability (NCI-H1793; first compound 0.1 µM): 0.56; relative viability (NCI-H1793; first compound 0.3162 µM): 0.472; relative viability (NCI-H1793; first compound 1 µM): 0.352; relative viability (NCI-H1993; first compound 0.01 µM): 0.671; relative viability (NCI-H1993; first compound 0.03162 µM): 0.584; relative viability (NCI-H1993; first compound 0.1 µM): 0.508; relative viability (NCI-H1993; first compound 0.3162 µM): 0.757; relative viability (NCI-H1993; first compound 1 µM): 0.589; relative viability (NCI-H2009; first compound 0.01 µM): 0.401; relative viability (NCI-H2009; first compound 0.03162 µM): 0.39; relative viability (NCI-H2009; first compound 0.1 µM): 0.35; relative viability (NCI-H2009; first compound 0.3162 µM): 0.387; relative viability (NCI-H2009; first compound 1 µM): 0.365; relative viability (NCI-H2170; first compound 0.01 µM): 0.474; relative viability (NCI-H2170; first compound 0.03162 µM): 0.427; relative viability (NCI-H2170; first compound 0.1 µM): 0.436; relative viability (NCI-H2170; first compound 0.3162 µM): 0.47; relative viability (NCI-H2170; first compound 1 µM): 0.497; relative viability (NCI-H2347; first compound 0.01 µM): 0.573; relative viability (NCI-H2347; first compound 0.03162 µM): 0.62; relative viability (NCI-H2347; first compound 0.1 µM): 0.623; relative viability (NCI-H2347; first compound 0.3162 µM): 0.626; relative viability (NCI-H2347; first compound 1 µM): 0.578; relative viability (NCI-H358; first compound 0.01 µM): 0.199; relative viability (NCI-H358; first compound 0.03162 µM): 0.235; relative viability (NCI-H358; first compound 0.1 µM): 0.227; relative viability (NCI-H358; first compound 0.3162 µM): 0.24; relative viability (NCI-H358; first compound 1 µM): 0.19; relative viability (NCI-H522; first compound 0.01 µM): 0.625; relative viability (NCI-H522; first compound 0.03162 µM): 0.573; relative viability (NCI-H522; first compound 0.1 µM): 0.748; relative viability (NCI-H522; first compound 0.3162 µM): 0.651; relative viability (NCI-H522; first compound 1 µM): 0.548; relative viability (NCI-H647; first compound 0.01 µM): 0.429; relative viability (NCI-H647; first compound 0.03162 µM): 0.383; relative viability (NCI-H647; first compound 0.1 µM): 0.489; relative viability (NCI-H647; first compound 0.3162 µM): 0.349; relative viability (NCI-H647; first compound 1 µM): 0.361; relative viability (NCI-H838; first compound 0.01 µM): 0.481; relative viability (NCI-H838; first compound 0.03162 µM): 0.484; relative viability (NCI-H838; first compound 0.1 µM): 0.428; relative viability (NCI-H838; first compound 0.3162 µM): 0.422; relative viability (NCI-H838; first compound 1 µM): 0.418; relative viability (SK-MES-1; first compound 0.01 µM): 0.435; relative viability (SK-MES-1; first compound 0.03162 µM): 0.425; relative viability (SK-MES-1; first compound 0.1 µM): 0.366; relative viability (SK-MES-1; first compound 0.3162 µM): 0.318; relative viability (SK-MES-1; first compound 1 µM): 0.356; relative viability (UMC-11; first compound 0.01 µM): 0.724; relative viability (UMC-11; first compound 0.03162 µM): 0.615; relative viability (UMC-11; first compound 0.1 µM): 0.661; relative viability (UMC-11; first compound 0.3162 µM): 0.592; relative viability (UMC-11; first compound 1 µM): 0.592
